Reference: US20180327367A1, “MACROCYCLIC BROAD SPECTRUM ANTIBIOTICS” (priority 2015, published 2018)
Values after ≈ are worked out from the molar mass of the structure shown. Where two headings read alike, the source gives them in different places.

Columns and labels:
[1] = system: Escherichia coli MC4100 harboring the IMP4213 (E. coli IMP); test: microbe, parasite or virus in culture; assay type: cell-based; conditions: Escherichia coli, 22 h, read-out: MIC (μg/mL) E. coli IMP, E. coli MC4100 IMP4213, increased outer-membrane permeability; 35° C., 22 hours
Method in brief: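 Ten 2-fold dilutions, from 4 μg/mL or from 0.5 μg/mL depending on protocol, are challenged with bacteria at OD600 0.0005 in Tween-80-supplemented cation-adjusted Mueller Hinton Broth. Plates incubate 22 hours at 35° C per CLSI. The E. coli IMP4213 strain has increased outer-membrane permeability.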

[2] = system: Methicillin Resistant Staphylococcus aureus strain USA 300, NRS384; test: Minimum inhibitory concentration, broth micro-dilution (CLSI), S. aureus; assay type: cell-based; conditions: Staphylococcus aureus, MRSA / NRS 384 / USA300, 22 h, 35° C., 22 hours
Method in brief: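 Colonies grown 20 hours at 35° C were suspended in cation-adjusted Mueller Hinton Broth with 0.002% Tween-80. Cells were then added to 2-fold compound dilutions starting at 4 or 0.5 μg/mL, at OD600 0.0005.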

[3] = system: Escherichia coli ATCC 25922; test: Minimum inhibitory concentration, broth micro-dilution (CLSI), E. coli; assay type: cell-based; conditions: Escherichia coli, ATCC25922, 22 h, 35° C., 22 hours
[4] = biological target: T1, SpsB (Staphylococcus aureus signal peptidase) (Staphylococcus aureus, UniProt P0A070); test: cell-based; assay type: biochemical; conditions: SpsB IC50, whole-cell S. aureus (USA300 background, overexpressing SpsB) as SpsB source; fluorogenic peptide substrate, kinetic read 30 min
T1 construct: This assay uses a suspension of Staphylococcus aureus cells as a source of SpsB instead of recombinant SpsB protein; endogenous in cells; host or cells: S. aureus, USA300 background, overexpressing SpsB (whole-cell suspension from frozen pellets)
Method in brief: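 Cleavage of an internally quenched (Dabcyl)βAla-KPAKAAE(Edans) peptide, added as 20 μM solution mixed 1:1 with cells, was followed for 30 min at 340/490 nm. SpsB came from a suspension of SpsB-overexpressing USA300 S. aureus in Tween-80-containing PBS buffer. Slopes plotted against 3-fold compound dilutions gave IC50.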

[5] = MRSA USA 300 NRS384, read-out: MIC (μg/mL) S. aureus
[6] = E. coli ATCC 25922, read-out: MIC (μg/mL) E. coli
[7] = read-out: MIC (μg/mL) S. aureus, MRSA USA 300 NRS384
[8] = read-out: MIC (μg/mL) E. coli, E. coli ATCC 25922

T1 sequence (P0A070 whole entry): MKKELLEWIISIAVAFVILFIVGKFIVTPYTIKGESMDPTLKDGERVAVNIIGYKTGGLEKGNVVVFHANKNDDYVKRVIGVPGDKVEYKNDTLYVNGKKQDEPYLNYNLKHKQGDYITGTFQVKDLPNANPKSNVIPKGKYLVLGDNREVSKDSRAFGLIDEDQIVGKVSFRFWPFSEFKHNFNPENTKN

| Structure (SMILES) | MIC [1] [µg/mL] | MIC [2, 5] [µg/mL] | MIC [3, 6] [µg/mL] | IC50 [4] [nM] | MIC [2, 7] [µg/mL] | MIC [3, 8] [µg/mL] |
| --- | --- | --- | --- | --- | --- | --- |
| CCCCCCCCCC(=O)N[C@@H](CCSC)C(=O)N(C)[C@@H]1C(=O)N[C@@H](C)C(=O)N[C@H](C(=O)NCC#N)Cc2ccc(OCCN)c(c2)-c2cc1ccc2OCCN [Compound 254] | 0.5 (≈ 0.607 µM) | 0.5 (≈ 0.607 µM) | 48 (≈ 58.3 µM) | 1.6 | – | – |
| CCCCCCCCCCCC(=O)N[C@H](C(=O)N(C)[C@@H]1C(=O)N[C@@H](C)C(=O)N[C@H](C(=O)NCC#N)Cc2ccc(OCCN)c(c2)-c2cc1ccc2OCCN)[C@@H](C)O [Compound 256] | 0.094 (≈ 0.114 µM) | 0.19 (≈ 0.231 µM) | 16 (≈ 19.5 µM) | 0.8 | – | – |
| CCCCCCCCCCCC(=O)N[C@@H](CCO)C(=O)N(C)[C@@H]1C(=O)N[C@@H](C)C(=O)N[C@H](C(=O)NCC#N)Cc2ccc(OCCN)c(c2)-c2cc1ccc2OCCN [Compound 257] | 0.063 (≈ 0.0767 µM) | 0.13 (≈ 0.158 µM) | 12 (≈ 14.6 µM) | 0.92 | – | – |
| CCCCc1ccc(C(=O)N[C@@H](CCO)C(=O)N(C)[C@@H]2C(=O)N[C@@H](C)C(=O)N[C@H](C(=O)NCC#N)Cc3ccc(OCCN)c(c3)-c3cc2ccc3OCCN)c(C)c1 [Compound 258] | 0.19 (≈ 0.234 µM) | 1 (≈ 1.23 µM) | 64 (≈ 78.7 µM) | 2.8 | – | – |
| CCCCCCCc1ccc(C(=O)N[C@@H](CCO)C(=O)N(C)[C@@H]2C(=O)N[C@@H](C)C(=O)N[C@H](C(=O)NCC#N)Cc3ccc(OCCN)c(c3)-c3cc2ccc3OCCN)c(C)c1 [Compound 260] | 0.031 (≈ 0.0363 µM) | 0.094 (≈ 0.11 µM) | 2 (≈ 2.34 µM) | 1.1 | – | – |
| Cc1cc(-c2ccc(CC(C)C)cc2)ccc1C(=O)N[C@@H](CCO)C(=O)N(C)[C@@H]1C(=O)N[C@@H](C)C(=O)N[C@H](C(=O)NCC#N)Cc2ccc(OCCN)c(c2)-c2cc1ccc2OCCN [Compound 261] | 0.047 (≈ 0.0529 µM) | 0.13 (≈ 0.146 µM) | 0.5 (≈ 0.562 µM) | 4.6 | – | – |
| CCCCCCCCc1ccc(C(=O)N[C@@H](CCO)C(=O)N(C)[C@@H]2C(=O)N[C@@H](C)C(=O)N[C@H](C(=O)NCC#N)Cc3ccc(OCCN)c(c3)-c3cc2ccc3OCCN)c(C)c1 [Compound 262] | 0.02 (≈ 0.023 µM) | 0.063 (≈ 0.0725 µM) | 1 (≈ 1.15 µM) | 0.9 | – | – |
| CCCCCCCCc1ccc(C(=O)N[C@@H](CCNCC(=O)O)C(=O)N(C)[C@@H]2C(=O)N[C@@H](C)C(=O)N[C@H](C(=O)NCC#N)Cc3ccc(OCCN)c(c3)-c3cc2ccc3OCCN)c(C)c1 [Compound 263] | 0.023 (≈ 0.0248 µM) | 0.13 (≈ 0.14 µM) | 2 (≈ 2.16 µM) | 1.1 | – | – |
| CCCCCCCCCCCC(=O)N[C@@H](CCCO)C(=O)N(C)[C@@H]1C(=O)N[C@@H](C)C(=O)N[C@H](C(=O)NCC#N)Cc2ccc(OCCN)c(c2)-c2cc1ccc2OCCN [Compound 264] | 0.094 (≈ 0.113 µM) | 0.13 (≈ 0.156 µM) | 16 (≈ 19.2 µM) | 2 | – | – |
| CCC(C)(C)c1ccc(C(=O)N[C@@H](CCN)C(=O)N(C)[C@@H]2C(=O)N[C@@H](C)C(=O)N[C@H](C(=O)NCC#N)Cc3ccc(OCCN)c(c3)-c3cc2ccc3OCCN)c(C)c1 [Compound 265] | 0.043 (≈ 0.0521 µM) | – | – | 0.89 | 0.13 (≈ 0.157 µM) | 2.5 (≈ 3.03 µM) |
| Cc1cc(C(C)(C)C)ccc1C(=O)N[C@@H](CCN)C(=O)N(C)[C@@H]1C(=O)N[C@@H](C)C(=O)N[C@H](C(=O)NCC#N)Cc2ccc(OCCN)c(c2)-c2cc1ccc2OCCN [Compound 266] | 0.083 (≈ 0.102 µM) | 0.5 (≈ 0.616 µM) | 3.5 (≈ 4.31 µM) | 2.1 | – | – |
| CCCCCCCOc1ccc(C(=O)N[C@@H](CCN)C(=O)N(C)[C@@H]2C(=O)N[C@@H](C)C(=O)N[C@H](C(=O)NCC#N)Cc3ccc(OCCN)c(c3)-c3cc2ccc3OCCN)c(Cl)c1 [Compound 267] | 0.012 (≈ 0.0135 µM) | – | – | 0.63 | 0.027 (≈ 0.0303 µM) | 0.13 (≈ 0.146 µM) |
| CCCCCCCOc1ccc(C(=O)N[C@@H](CCN)C(=O)N(C)[C@@H]2C(=O)N[C@@H](C)C(=O)N[C@H](C(=O)NCC#N)Cc3ccc(OCCN)c(c3)-c3cc2ccc3OCCN)c(C)c1 [Compound 268] | < 0.0039 | 0.035 (≈ 0.0402 µM) | 0.22 (≈ 0.253 µM) | 0.86 | – | – |
| CCCCOc1ccc(C(=O)N[C@@H](CCN)C(=O)N(C)[C@@H]2C(=O)N[C@@H](C)C(=O)N[C@H](C(=O)NCC#N)Cc3ccc(OCCN)c(c3)-c3cc2ccc3OCCN)c(Cl)c1 [Compound 269] | 0.023 (≈ 0.0271 µM) | 0.25 (≈ 0.295 µM) | 1 (≈ 1.18 µM) | 1.2 | – | – |
